Assay results reported in paper PMC8016166, “Identification of a Potent and Selective 5-HT1A Receptor Agonist with In Vitro and In Vivo Antinociceptive Activity” (ACS Chemical Neuroscience, 2020).

Columns and labels:
[1] = biological target: T1, 5-HT1AR (Rattus norvegicus, UniProt P19327); test: [35S]GTPγS functional 5-HT1A assay in rat hippocampal membranes; format: biochemical; settings: for agonist classification by Emax vs serotonin: [35S]GTPγS binding, partial = half (or lower) as efficacious as serotonin; for Emax: basal 5-HT1AR activation set to 100%, read-out: 5-HT1A Emax (%) ± SEM; for eudismic ratio (EC50S/R): S vs R optical isomer
T1 construct: from tissue; hippocampus per the main-text methods
T1 sequence (P19327 1-422): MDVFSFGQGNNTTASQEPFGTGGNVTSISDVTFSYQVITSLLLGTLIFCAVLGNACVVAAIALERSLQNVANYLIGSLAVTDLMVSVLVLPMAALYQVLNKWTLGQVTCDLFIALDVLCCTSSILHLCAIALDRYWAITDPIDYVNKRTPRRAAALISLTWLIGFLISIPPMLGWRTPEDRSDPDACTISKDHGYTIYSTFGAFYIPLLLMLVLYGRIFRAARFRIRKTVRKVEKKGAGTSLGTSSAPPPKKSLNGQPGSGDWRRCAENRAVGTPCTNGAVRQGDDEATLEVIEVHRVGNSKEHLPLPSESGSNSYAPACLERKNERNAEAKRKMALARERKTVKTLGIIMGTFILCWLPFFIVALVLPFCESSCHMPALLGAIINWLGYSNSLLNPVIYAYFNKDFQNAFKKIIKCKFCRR
Method: Male Sprague–Dawley rats were decapitated and their brains removed and placed on ice. The hippocampi (for the functional 5-HT1A receptor assay) or frontal cortexes (for the competitive 5-HT2A and 5-HT2C receptor assays) were dissected and homogenized with a glass homogenizer in 30 vol. ice-cold TED buffer (50 mMTris-HCl, 1 mM EDTA, 1 mM dithiotheritol, pH 7.4). Next, the homogenate was centrifuged at 21 000g for 30 min at 4 °C. The pellet was suspended in 30 vol TED buffer (pH 7.4) and incubated in a water bath for 10 min at 37 °C to remove endogenous ligands. The suspension was centrifuged again at 21 000g for 30 min at 4 °C. The pellet was resuspended in 30 vol TED buffer (pH 7.4) and the centrifugation step was repeated. The final pellet was suspended in 10 vol 50 mM Tris-HCl (pH 7.4) and stored at −80 °C until use.[47]
(§1) The [^35S]GTPγS assay was performed according to the method described previously.[49] […] Nonspecific binding was determined with 100 μM of unlabeled GTPγS. The reaction mixture was incubated for 90 min at 36 °C in a volume of 250 μL. […] Next, 96-well Unifilter Plates (PerkinElmer, USA) were presoaked for 1 h with 50 mM Tris-HCl (pH = 7.4) before harvesting. The reaction was terminated by vacuum filtration onto filter plates with the Filter Mate Harvester (PerkinElmer, USA). The samples were then rapidly washed with 2 mL of 50 mM Tris-HCl (pH = 7.4) buffer. The filter plates were dried for 2 h at 50 °C. After drying, 45 μL of EcoScint-20 scintillant (PerkinElmer, USA) was added to every well. The radioactivity was counted in a Trilux MicroBeta^2 counter (PerkinElmer, USA). The data were analyzed with GraphPad Prism 5.0 software (GraphPad Software, San Diego California USA, www.graphpad.com). To determine whether compound-stimulated [^35S]GTPγS binding involved 5-HT1A receptors, two protocols were used.
The curves were fitted with a one-site nonlinear regression model. Efficacy (Emax) and potency (pEC50) were calculated from […] from three separate experiments and expressed as the means ± SEM. […] The differences in compound potency and efficacy were evaluated with one-way ANOVA followed by the Bonferroni’s post-hoc test. The baseline G-protein stimulation was set at 100%. One, two, or three symbols represent statistical significance of 0.05, 0.01, and 0.001, respectively.

[2] = biological target: T1, 5-HT1AR; test: Effect of WAY100635 on compound-stimulated [35S]GTPγS binding (Tables SI-1, SI-2); format: biochemical; settings: for Emax: basal set to 100%; for EC50: rat frontal cortex homogenates, read-out: pEC50 ± SEM, compound alone (converted); for shift ratio: with WAY100635 10^-7 M vs agonist alone
Method: as §1, with “used. […]” for “used.”
WAY).) Results were expressed as means ± SEM. Curves were fitted with a one-site sigmoidal dose-response equation […]
calculated as the ratio of pEC50 in the presence of WAY100635 divided by the pEC50 of agonist alone. Basal 5-HT1AR activation was set to 100%. Results were analyzed with one-way ANOVA followed by the Bonferroni’s post-hoc test. […]
WAY100635 (10^-10 M - 10^-5 M, WAY). Results were expressed as means ± SEM. Curves were fitted with a one-site sigmoidal dose-response equation and Emax (%) of the EC80 agonist concentration alone and in the presence of WAY100635 were determined from 2 independent experiments. Basal (no ligand added) [35S]GTPγS binding was set to 100%. Results were analyzed with one-way ANOVA followed by the Bonferroni’s post-hoc test.

[3] = rat hippocampal membranes, [35S]GTPγS, three independent experiments, read-out: 5-HT1A pEC50 ± SEM (converted)
[4] = Table SI-1, read-out: Emax (%) ± SEM, compound alone
[5] = Table SI-2, read-out: Emax (%) ± SEM of EC80 agonist concentration alone

c1ccc(C2(c3ccccc3)OC[C@H](CNCCOc3ccccc3-c3ccncc3)O2)cc1 [(S)-1, N-[(2,2-Diphenyl-1,3-dioxolan-4-yl)methyl]-2-[2-(pyridin-4-yl)phenoxy]ethan-1-ammonium hydrogenoxalate]
functional activity of (S)-1 compared with racemate 1 [1]: 6 fold | agonist classification by Emax vs serotonin [1]: partial agonists | EC50 [1, 3]: 0.0158 µM | Emax ([1]; rat hippocampal membranes): 138 ± 2.9% | Emax [2, 4]: 138 ± 2.9% | EC50 ([2]; Table SI-1): 0.0158 µM | shift ratio ([2]; Table SI-1): 39.8 | Emax [2, 5]: 134 ± 24.5%

Cn1cncc1-c1ccccc1OCCNC[C@H]1COC(c2ccccc2)(c2ccccc2)O1 [(S)-2, N-((2,2-Diphenyl-1,3-dioxolan-4-yl)methyl)-2-(2-(1-methyl-1H-imidazol-5-yl)phenoxy)ethan-1-ammonium hydrogenoxalate]
agonist classification by Emax vs serotonin [1]: full agonists | EC50 [1, 3]: 0.0251 µM | Emax ([1]; rat hippocampal membranes): 175 ± 2.7% | Emax [2, 4]: 175 ± 2.7% | EC50 ([2]; Table SI-1): 0.0251 µM | shift ratio ([2]; Table SI-1): 25.1 | Emax [2, 5]: 156 ± 21.7%

c1ccc(C2(c3ccccc3)OC[C@@H](CNCCOc3ccccc3-c3ccncc3)O2)cc1 [(R)-1, N-[(2,2-Diphenyl-1,3-dioxolan-4-yl)methyl]-2-[2-(pyridin-4-yl)phenoxy]ethan-1-ammonium hydrogenoxalate]
agonist classification by Emax vs serotonin [1]: partial agonists | EC50 [1, 3]: 0.0631 µM | Emax ([1]; rat hippocampal membranes): 158 ± 5.9% | Emax [2, 4]: 158 ± 5.9% | EC50 ([2]; Table SI-1): 0.0631 µM | shift ratio ([2]; Table SI-1): 10.0 | Emax [2, 5]: 149 ± 35.1%

c1ccc(C2(c3ccccc3)OCC(CNCCOc3ccccc3-c3ccncc3)O2)cc1 (racemic) [rac-1, N-[(2,2-diphenyl-1,3-dioxolan-4-yl)methyl]-2-[2-(pyridin-4-yl)phenoxy]ethan-1-ammonium hydrogenoxalate]
eudismic ratio (EC50S/R) ([1]; [35S]GTPγS): 4.0 | agonist classification by Emax vs serotonin [1]: partial agonists | EC50 ([1]; [35S]GTPγS functional assay, read-out: EC50): 0.0921 µM | Emax ([1]; rat hippocampal membranes): 151 ± 4.2% | Emax [2, 4]: 151 ± 4.2% | EC50 ([2]; Table SI-1): 0.1 µM | shift ratio ([2]; Table SI-1): 6.3 | Emax [2, 5]: 138 ± 28.4%

Cn1cncc1-c1ccccc1OCCNC[C@@H]1COC(c2ccccc2)(c2ccccc2)O1 [(R)-2, N-((2,2-Diphenyl-1,3-dioxolan-4-yl)methyl)-2-(2-(1-methyl-1H-imidazol-5-yl)phenoxy)ethan-1-ammonium hydrogenoxalate]
agonist classification by Emax vs serotonin [1]: partial agonists | EC50 [1, 3]: 0.0631 µM | Emax ([1]; rat hippocampal membranes): 143 ± 3.6% | Emax [2, 4]: 143 ± 3.6% | EC50 ([2]; Table SI-1): 0.0631 µM | shift ratio ([2]; Table SI-1): 19.9 | Emax [2, 5]: 140 ± 18.8%

Cn1cncc1-c1ccccc1OCCNCC1COC(c2ccccc2)(c2ccccc2)O1 (racemic) [rac-2, N-((2,2-diphenyl-1,3-dioxolan-4-yl)methyl)-2-(2-(1-methyl-1H-imidazol-5-yl)phenoxy)ethan-1-ammonium hydrogenoxalate]
eudismic ratio (EC50S/R) ([1]; [35S]GTPγS): 2.6 | agonist classification by Emax vs serotonin [1]: full agonists | EC50 [1, 3]: 0.0398 µM | Emax ([1]; rat hippocampal membranes): 184 ± 2.7% | Emax [2, 4]: 184 ± 2.7% | EC50 ([2]; Table SI-1): 0.0398 µM | shift ratio ([2]; Table SI-1): 31.6 | Emax [2, 5]: 158 ± 24.6%
